ChEMBL document CHEMBL5715954, “Silencing c-Myc translation as a therapeutic strategy through targeting PI3Kδ and CK1ε in hematological malignancies” (Blood, 2017)

Key:
Design in all cases: scale not given: the % may be the effect or the level left
[1] = target: T1, Mitogen-activated protein kinase kinase kinase kinase 2 (Homo sapiens) (UniProt Q12851); assay: Inhibition of human GCK assessed as enzyme activity at 1 uM using myelin basic protein as substrate preincubated for 20 mins followed by [gamma-33P]-ATP addition and measured after 120 mins by radiometric Hot-SpotSM Kinase assay relative to control
T1 sequence (whole entry): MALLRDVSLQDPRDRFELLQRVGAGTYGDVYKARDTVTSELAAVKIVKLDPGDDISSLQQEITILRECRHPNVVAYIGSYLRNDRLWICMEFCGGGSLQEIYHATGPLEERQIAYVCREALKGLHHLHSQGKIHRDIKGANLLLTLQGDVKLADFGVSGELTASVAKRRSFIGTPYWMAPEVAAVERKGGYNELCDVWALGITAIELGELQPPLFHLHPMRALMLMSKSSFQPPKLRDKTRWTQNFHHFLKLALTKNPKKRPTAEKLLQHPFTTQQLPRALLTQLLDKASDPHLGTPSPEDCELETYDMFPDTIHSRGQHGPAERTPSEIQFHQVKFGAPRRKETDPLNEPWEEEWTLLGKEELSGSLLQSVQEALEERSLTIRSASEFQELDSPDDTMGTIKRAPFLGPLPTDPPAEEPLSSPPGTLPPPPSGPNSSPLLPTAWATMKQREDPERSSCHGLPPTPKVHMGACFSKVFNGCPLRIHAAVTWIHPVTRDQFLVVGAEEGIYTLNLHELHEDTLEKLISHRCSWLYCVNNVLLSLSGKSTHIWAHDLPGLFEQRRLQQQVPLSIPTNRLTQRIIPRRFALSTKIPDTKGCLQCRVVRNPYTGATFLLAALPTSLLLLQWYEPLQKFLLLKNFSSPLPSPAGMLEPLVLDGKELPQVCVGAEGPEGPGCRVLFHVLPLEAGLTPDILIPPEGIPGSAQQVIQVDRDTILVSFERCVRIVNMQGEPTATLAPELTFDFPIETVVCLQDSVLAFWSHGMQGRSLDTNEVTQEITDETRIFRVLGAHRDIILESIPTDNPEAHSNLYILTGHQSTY

[2] = target: T2, Serine/threonine-protein kinase LATS2 (Homo sapiens) (UniProt Q9NRM7); assay: Inhibition of human LATS2 assessed as enzyme activity at 1 uM using KKRNRRLSVA as substrate preincubated for 20 mins followed by [gamma-33P]-ATP addition and measured after 120 mins by radiometric Hot-SpotSM Kinase assay relative to control
T2 sequence (whole entry): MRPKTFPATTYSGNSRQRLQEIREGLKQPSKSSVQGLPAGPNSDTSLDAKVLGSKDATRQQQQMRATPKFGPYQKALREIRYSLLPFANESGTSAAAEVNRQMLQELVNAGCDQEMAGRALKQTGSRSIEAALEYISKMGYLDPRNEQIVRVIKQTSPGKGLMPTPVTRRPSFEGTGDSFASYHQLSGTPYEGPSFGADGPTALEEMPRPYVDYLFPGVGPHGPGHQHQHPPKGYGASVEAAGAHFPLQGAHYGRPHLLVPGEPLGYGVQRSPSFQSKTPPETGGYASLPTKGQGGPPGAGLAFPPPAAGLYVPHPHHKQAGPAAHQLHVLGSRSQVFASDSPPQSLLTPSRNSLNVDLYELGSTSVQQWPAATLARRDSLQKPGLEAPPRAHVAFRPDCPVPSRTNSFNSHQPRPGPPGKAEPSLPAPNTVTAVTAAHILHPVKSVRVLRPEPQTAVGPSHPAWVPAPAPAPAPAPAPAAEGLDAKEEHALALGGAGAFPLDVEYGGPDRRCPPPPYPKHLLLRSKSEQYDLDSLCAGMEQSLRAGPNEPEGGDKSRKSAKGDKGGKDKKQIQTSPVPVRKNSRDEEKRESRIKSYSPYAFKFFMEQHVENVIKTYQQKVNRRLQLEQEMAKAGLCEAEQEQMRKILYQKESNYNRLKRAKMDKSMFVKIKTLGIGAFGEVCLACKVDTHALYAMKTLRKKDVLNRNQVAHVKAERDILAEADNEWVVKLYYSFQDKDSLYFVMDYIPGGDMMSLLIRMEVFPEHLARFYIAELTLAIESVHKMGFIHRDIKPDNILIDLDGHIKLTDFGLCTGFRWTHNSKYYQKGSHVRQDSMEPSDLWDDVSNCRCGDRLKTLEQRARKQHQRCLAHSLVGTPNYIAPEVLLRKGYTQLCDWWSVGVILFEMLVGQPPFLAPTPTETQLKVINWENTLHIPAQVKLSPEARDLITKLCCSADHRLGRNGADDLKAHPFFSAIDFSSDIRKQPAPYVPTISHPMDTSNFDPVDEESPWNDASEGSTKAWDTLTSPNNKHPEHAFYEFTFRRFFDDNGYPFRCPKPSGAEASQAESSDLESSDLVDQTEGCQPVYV

[3] = target: Dual specificity protein kinase CLK4 (Homo sapiens) (UniProt Q9HAZ1); assay: Inhibition of human CLK4 assessed as enzyme activity at 1 uM using myelin basic protein as substrate preincubated for 20 mins followed by [gamma-33P]-ATP addition and measured after 120 mins by radiometric Hot-SpotSM Kinase assay relative to control
Dual specificity protein kinase CLK4 (Homo sapiens), sequence (Q9HAZ1 whole entry, looked up): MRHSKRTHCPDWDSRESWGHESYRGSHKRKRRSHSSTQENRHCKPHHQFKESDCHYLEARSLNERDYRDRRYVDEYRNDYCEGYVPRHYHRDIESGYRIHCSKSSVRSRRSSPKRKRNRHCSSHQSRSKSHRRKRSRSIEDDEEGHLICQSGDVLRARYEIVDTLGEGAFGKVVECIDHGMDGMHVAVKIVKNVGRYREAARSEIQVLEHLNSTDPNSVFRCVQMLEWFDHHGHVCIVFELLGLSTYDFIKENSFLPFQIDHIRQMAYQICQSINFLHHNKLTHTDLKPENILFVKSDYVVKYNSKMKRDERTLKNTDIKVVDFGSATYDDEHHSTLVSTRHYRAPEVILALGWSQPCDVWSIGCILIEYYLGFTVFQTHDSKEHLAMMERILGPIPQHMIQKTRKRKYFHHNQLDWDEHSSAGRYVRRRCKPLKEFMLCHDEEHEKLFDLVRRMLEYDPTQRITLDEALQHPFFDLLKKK

[4] = target: Serine/threonine-protein kinase MARK1 (Homo sapiens) (UniProt Q9P0L2); assay: Inhibition of human MARK1 assessed as enzyme activity at 1 uM using KKKVSRSGLYRSPSMPENLNRPR as substrate preincubated for 20 mins followed by [gamma-33P]-ATP addition and measured after 120 mins by radiometric Hot-SpotSM Kinase assay relative to control
Serine/threonine-protein kinase MARK1 (Homo sapiens), sequence (Q9P0L2 whole entry, looked up): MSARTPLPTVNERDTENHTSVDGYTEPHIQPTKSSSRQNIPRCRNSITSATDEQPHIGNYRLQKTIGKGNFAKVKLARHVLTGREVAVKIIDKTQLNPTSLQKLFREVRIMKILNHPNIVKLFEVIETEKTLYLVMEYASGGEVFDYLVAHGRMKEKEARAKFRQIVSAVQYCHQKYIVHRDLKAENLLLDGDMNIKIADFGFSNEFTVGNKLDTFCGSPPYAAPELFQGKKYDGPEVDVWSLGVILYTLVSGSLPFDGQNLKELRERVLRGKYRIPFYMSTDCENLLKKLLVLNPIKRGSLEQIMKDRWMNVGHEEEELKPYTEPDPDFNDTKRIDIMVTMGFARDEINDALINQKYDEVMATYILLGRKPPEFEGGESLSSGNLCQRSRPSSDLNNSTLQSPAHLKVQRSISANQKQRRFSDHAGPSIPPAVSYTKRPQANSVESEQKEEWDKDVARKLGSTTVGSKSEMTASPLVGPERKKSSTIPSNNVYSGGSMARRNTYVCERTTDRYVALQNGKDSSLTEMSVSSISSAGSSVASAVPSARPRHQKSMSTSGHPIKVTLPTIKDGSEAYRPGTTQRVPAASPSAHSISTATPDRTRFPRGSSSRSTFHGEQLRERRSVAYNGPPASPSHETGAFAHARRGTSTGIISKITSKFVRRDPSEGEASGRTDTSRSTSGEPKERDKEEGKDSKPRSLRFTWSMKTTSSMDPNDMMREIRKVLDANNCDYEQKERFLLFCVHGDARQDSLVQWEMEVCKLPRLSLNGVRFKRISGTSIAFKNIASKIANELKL

| Compound | Activity [1] | Activity [2] | Activity [3] | Activity [4] |
| --- | --- | --- | --- | --- |
| CC[C@H](Nc1ncnc2[nH]cnc12)c1nc2cccc(F)c2c(=O)n1-c1ccccc1 | 97% | 91.5% | 103% | 99.9% |
| C[C@H](Nc1ncnc2nc[nH]c12)c1cc2cccc(Cl)c2c(=O)n1-c1ccccc1 | 96.7% | 91.9% | 107% | 93.3% |
| CC(C)Oc1ccc(-c2nn([C@@H](C)c3oc4ccc(F)cc4c(=O)c3-c3cccc(F)c3)c3ncnc(N)c23)cc1F [UMBRALISIB] | 98.6% | 103% | 116% | 96.2% |
